Literature values in patent publication US20120065069A1, “AGENT FOR REDUCING NICOTINE AND HARMFUL COMPONENTS IN TOBACCO LEAVES FOR USE IN FIELD CULTIVATION OF TOBACCO” (TOBACCO RESEARCH INSTITUTE OF HUBEI PROVINCE, priority 2009, published 2012).

Tests used:
[1] = test system: flue-cured tobacco; conditions: for effect in nicotine reduction: Feng Ding thesis 2006, flue-cured tobacco; for effect in reducing the nicotine content: single ingredient, flue-cured tobacco, Liu et al. 2005 (IAA), Gao et al. 2005 (α-NAA, variety K326)
[2] = test system: bean seedling; conditions: 2 mmol/L salicylic acid
[3] = test system: corn; conditions: 0.5 mmol/L salicylic acid

SMILES	effect in nicotine reduction [1]	effect in reducing the nicotine content [1]	also measured
O=C(O)COc1ccc(Cl)cc1Cl [2,4-D, 2,4-dichlorophenoxyacetic acid]	significant effects	–	–
C[N+](C)(C)CCO.[Cl-] [CC, choline chloride]	significant effects	–	–
O=C(O)Cc1c[nH]c2ccccc12 [indolylacetic acid]	–	certain effects	–
O=C(O)Cc1cccc2ccccc12 [naphthylacetic acid]	–	certain effects	–
O=C(O)c1ccccc1O [salicylic acid]	–	–	effect on damage of drought stress to bean seedling [2]: alleviate the damage of drought stress; effect on tolerance of corn to low temperature [3]: enhance the tolerance
